Results published in patent US6642276B2, “Controlled release macrolide pharmaceutical formulations” (M/S Ind-Swift Limited, priority 2001, dated 2003).

Key:
Format in all cases: physicochemical
[1] = pH of 0.2% suspension in water: methanol (19:1)
[2] = Stability studies of bulk drug, physical mixture and citrate salt on storage
[3] = pH solubility studies (mg of drug dissolved per ml of buffer)

CC[C@H]1OC(=O)[C@H](C)[C@@H](O[C@H]2C[C@@](C)(OC)[C@@H](O)[C@H](C)O2)[C@H](C)[C@@H](O[C@@H]2O[C@H](C)C[C@H](N(C)C)[C@H]2O)[C@](C)(OC)C[C@@H](C)C(=O)[C@H](C)[C@@H](O)[C@]1(C)O [Clarithromycin, 6-O-methylerythromycinA]
pH of 0.2% suspension in water: methanol (19:1) [1]: 7.5 to 10.0 | Stability Studies: change / Degradation of Clarithromycin ([2]; 40° C. and 75% RH-2 Months): No Change/No | Stability Studies: change / Degradation of Clarithromycin ([2]; 40° C. and 75% RH-3 Months): No Change/No | Stability Studies: change / Degradation of Clarithromycin ([2]; 40° C. and 75% RH-4 Months): No Change/No | Stability Studies: change / Degradation of Clarithromycin ([2]; 40° C. and 75% RH-5 Months): No Change/No | Stability Studies: change / Degradation of Clarithromycin ([2]; 60° C.-1 month): No Change/No | Stability Studies: change / Degradation of Clarithromycin ([2]; 60° C.-2 months): No Change/No | Stability Studies: change / Degradation of Clarithromycin ([2]; 60° C.-3 months): No Change/No | Stability Studies: change / Degradation of Clarithromycin ([2]; 85° C.-1 day): No Change/No | Stability Studies: change / Degradation of Clarithromycin ([2]; 85° C.-4 days): No Change/No | Stability Studies: change / Degradation of Clarithromycin ([2]; 85° C.-7 days): No Change/No | Stability Studies: change / Degradation of Clarithromycin ([2]; 85°-15 days): No Change/No | Stability Studies: change / Degradation of Clarithromycin ([2]; RT-3 Months): No Change/No | Stability Studies: change / Degradation of Clarithromycin ([2]; RT-6 Months): No Change/No | Stability Studies: change / Degradation of Clarithromycin ([2]; RT-9 Months): No Change/No | Stability Studies: change / Degradation of Clarithromycin ([2]; RT-12 Months): No Change/No | pH solubility studies (mg of Clarithromycin dissolved per ml of buffer) ([3]; pH 3.0 (KCl Buffer)): 2.00 mg/ml | pH solubility studies (mg of Clarithromycin dissolved per ml of buffer) ([3]; pH 4.0 (KCl Buffer)): 0.33 mg/ml | pH solubility studies (mg of Clarithromycin dissolved per ml of buffer) ([3]; pH 5.0 (Phosphate Buffer)): 10.09 mg/ml | pH solubility studies (mg of Clarithromycin dissolved per ml of buffer) ([3]; pH 6.0 (Phosphate Buffer)): 7.46 mg/ml | pH solubility studies (mg of Clarithromycin dissolved per ml of buffer) ([3]; pH 7.0 (Phosphate Buffer)): 2.00 mg/ml
